Inconclusive results and toxic doses are left out.
System: CD2F1 mice, L1210 leukemia ip, survival T/C
Assay: NCI In Vivo Anticancer Drug Screen. Data for tumor model L1210 Leukemia (intraperitoneal) in CD2F1 (CDF1) mice
Details: endpoint: mean survival time, higher = longer survival
In short: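 Each value reflects a quotient of treated over vehicle control outcomes in mice with a transplanted tumor.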

[1] = dose: 100.0 mg/kg/injection, schedule: Q01DX009 (ip), vehicle: saline with Tween-80
[2] = dose: 6.25 mg/kg/injection, schedule: Q04DX003 (ip), vehicle: distilled water + Tween-80
[3] = dose: 25.0 mg/kg/injection, schedule: Q04DX003 (ip), vehicle: distilled water + Tween-80
[4] = dose: 50.0 mg/kg/injection, schedule: Q04DX003 (ip), vehicle: distilled water + Tween-80
[5] = dose: 100.0 mg/kg/injection, schedule: Q04DX003 (ip), vehicle: saline

What does the source list for `O=C(O)CSCC(=O)c1ccccc1`?
T/C [1]: 98 % of control; T/C (dose: 100.0 mg/kg/injection, schedule: Q04DX003 (ip), vehicle: saline with Tween-80): 94 % of control; T/C (dose: 200.0 mg/kg/injection, schedule: Q01DX009 (ip), vehicle: saline with Tween-80): 100 % of control; T/C (dose: 200.0 mg/kg/injection, schedule: Q04DX003 (ip), vehicle: saline with Tween-80): 98 % of control; T/C (dose: 400.0 mg/kg/injection, schedule: Q01DX009 (ip), vehicle: saline with Tween-80): 98 % of control; T/C (dose: 400.0 mg/kg/injection, schedule: Q04DX003 (ip), vehicle: saline with Tween-80): 102 % of control

`CCN(CC)c1ccc(NC(=O)c2ccc(C(=O)Nc3ccc(N(CC)CC)cc3)cc2)cc1` was tested. Which T/C (dose: 100.0 mg/kg/injection, schedule: Q01DX001 (ip), vehicle: saline) did it give?
Its T/C is 89 % of control.

And the T/C (dose: 200.0 mg/kg/injection, schedule: Q01DX001 (ip), vehicle: saline)?
Its T/C is 92 % of control.

And the T/C (dose: 400.0 mg/kg/injection, schedule: Q01DX001 (ip), vehicle: saline)?
Its T/C is 92 % of control.

Which results are given for `C[CH2][Pb]([CH2]C)([CH2]C)[O]C(=O)COc1ccccc1`?
T/C (dose: 1.5 mg/kg/injection, schedule: Q04DX003 (ip), vehicle: Klucel (hydroxypropylcellulose) (HPC)): 104 % of control; T/C (dose: 3.0 mg/kg/injection, schedule: Q04DX003 (ip), vehicle: Klucel (hydroxypropylcellulose) (HPC)): 97 % of control; T/C (dose: 6.0 mg/kg/injection, schedule: Q04DX003 (ip), vehicle: Klucel (hydroxypropylcellulose) (HPC)): 100 % of control; T/C (dose: 12.0 mg/kg/injection, schedule: Q04DX003 (ip), vehicle: Klucel (hydroxypropylcellulose) (HPC)): 104 % of control; T/C (dose: 24.0 mg/kg/injection, schedule: Q04DX003 (ip), vehicle: Klucel (hydroxypropylcellulose) (HPC)): 86 % of control

What does the source list for `O=C(O)C(=O)O.[NH-]C1CCCCC1C1CCCCC1[NH-].[Pt+2]` (stereo not given)?
T/C (dose: 3.12 mg/kg/injection, schedule: Q04DX003 (ip), vehicle: distilled water + Tween-80): 112 % of control; T/C [2]: 119 % of control; T/C [3]: 160 % of control; T/C [4]: 238 % of control

`CN(C)N=Nc1c(F)cc(F)c(F)c1F` was tested. Which T/C (dose: 25.0 mg/kg/injection, schedule: Q01DX009 (ip), vehicle: saline with Tween-80) did it give?
Its T/C is 101 % of control.

And the T/C (dose: 50.0 mg/kg/injection, schedule: Q01DX009 (ip), vehicle: saline with Tween-80)?
The T/C was 104 % of control.

What about the T/C [1] of the same compound?
Its T/C is 104 % of control.

`Nc1cc(=O)[nH]c(=S)n1-c1ccccn1` was tested. Which T/C [5] did it give?
Its T/C is 101 % of control.

And the T/C (dose: 200.0 mg/kg/injection, schedule: Q04DX003 (ip), vehicle: saline)?
The T/C was 95 % of control.

And the T/C (dose: 400.0 mg/kg/injection, schedule: Q04DX003 (ip), vehicle: saline)?
Its T/C is 97 % of control.

How did the T/C (dose: 25.0 mg/kg/injection, schedule: Q01DX009 (ip), vehicle: saline) turn out when `CN(C)CCCNC1CCC(NCCCN(C)C)CC1` (stereo not given) was run?
The T/C was 96 % of control.

What about the T/C [5] of the same compound?
The T/C was 98 % of control.

`CCOC(=O)c1ccc(N2C(=O)C=CC2=O)cc1` was tested. Which T/C (dose: 12.5 mg/kg/injection, schedule: Q01DX009 (ip), vehicle: saline) did it give?
Its T/C is 97 % of control.

For `CCOc1ccc2nc([NH-])sc2c1.CCOc1ccc2nc([NH-])sc2c1.[Cl][Pt+2][Cl]`, which T/C (dose: 3.13 mg/kg/injection, schedule: Q04DX003 (ip), vehicle: distilled water + Tween-80) is on record?
The T/C was 96 % of control.

What about the T/C [2] of the same compound?
Its T/C is 96 % of control.

And the T/C (dose: 12.5 mg/kg/injection, schedule: Q04DX003 (ip), vehicle: distilled water + Tween-80)?
Its T/C is 96 % of control.

And the T/C [3]?
Its T/C is 95 % of control.

And the T/C [4]?
Its T/C is 98 % of control.

What about the T/C (dose: 100.0 mg/kg/injection, schedule: Q04DX003 (ip), vehicle: distilled water + Tween-80) of the same compound?
The T/C was 101 % of control.

What about the T/C (dose: 200.0 mg/kg/injection, schedule: Q04DX003 (ip), vehicle: distilled water + Tween-80) of the same compound?
Its T/C is 96 % of control.

`O=C(OC(=O)C(F)(F)C(F)(F)F)C(F)(F)C(F)(F)F` was tested. Which T/C (dose: 100.0 mg/kg/injection, schedule: Q04DX002 (ip), vehicle: saline) did it give?
Its T/C is 92 % of control.

And the T/C (dose: 200.0 mg/kg/injection, schedule: Q04DX002 (ip), vehicle: saline)?
Its T/C is 103 % of control.

And the T/C (dose: 400.0 mg/kg/injection, schedule: Q04DX002 (ip), vehicle: saline)?
The T/C was 100 % of control.

With `CCN(CC)c1ccc(N)cc1` as the compound, how does the T/C (dose: 5.0 mg/kg/injection, schedule: Q01DX009 (ip), vehicle: saline) read?
Its T/C is 96 % of control.

And the T/C (dose: 5.0 mg/kg/injection, schedule: Q04DX003 (ip), vehicle: saline)?
The T/C was 96 % of control.

And the T/C (dose: 10.0 mg/kg/injection, schedule: Q01DX009 (ip), vehicle: saline)?
Its T/C is 96 % of control.

And the T/C (dose: 10.0 mg/kg/injection, schedule: Q04DX003 (ip), vehicle: saline)?
The T/C was 97 % of control.

And the T/C (dose: 20.0 mg/kg/injection, schedule: Q01DX009 (ip), vehicle: saline)?
Its T/C is 100 % of control.

What about the T/C (dose: 20.0 mg/kg/injection, schedule: Q04DX003 (ip), vehicle: saline) of the same compound?
The T/C was 94 % of control.

With `Cc1ccc(S(=O)(=O)N/N=C/c2ccncc2)cc1` as the compound, how does the T/C (dose: 25.0 mg/kg/injection, schedule: Q01DX009 (ip), vehicle: Klucel (hydroxypropylcellulose) (HPC)) read?
The T/C was 104 % of control.

And the T/C (dose: 50.0 mg/kg/injection, schedule: Q01DX009 (ip), vehicle: Klucel (hydroxypropylcellulose) (HPC))?
The T/C was 105 % of control.

What about the T/C (dose: 100.0 mg/kg/injection, schedule: Q01DX009 (ip), vehicle: Klucel (hydroxypropylcellulose) (HPC)) of the same compound?
The T/C was 98 % of control.

And the T/C (dose: 200.0 mg/kg/injection, schedule: Q01DX009 (ip), vehicle: Klucel (hydroxypropylcellulose) (HPC))?
Its T/C is 98 % of control.

`COc1ccc(N=Nc2sc(N)nc2-c2cccc([N+](=O)[O-])c2)cc1` was tested. Which T/C (dose: 100.0 mg/kg/injection, schedule: Q01DX001 (ip), vehicle: saline with Tween-80) did it give?
The T/C was 93 % of control.

And the T/C (dose: 200.0 mg/kg/injection, schedule: Q01DX001 (ip), vehicle: saline with Tween-80)?
Its T/C is 90 % of control.

What about the T/C (dose: 400.0 mg/kg/injection, schedule: Q01DX001 (ip), vehicle: saline with Tween-80) of the same compound?
The T/C was 97 % of control.

Source: PubChem BioAssay AID256 (DTP/NCI, 2004)
